Tests used:
Test in all cases: relative viability (nuclei count vs DMSO), 5 days (fraction); higher = more cells survive
[1] = compound: CC1CC(=O)N(C2=CN=C(N=C2N1C3CCCC3)NC4=C(C=C(C=C4)C(=O)NC5CCN(CC5)C)OC)C [NPK76-II-72-1] + Cc1cc(Nc2cc(N3CCN(C)CC3)nc(Sc3ccc(NC(=O)C4CC4)cc3)n2)n[nH]1 [Tozasertib] (partner 0.1 µM)
How it was run: (§1)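 The day after seeding in 1536-well plates, lung cancer cell lines were treated by pin tool with a single drug, or with a fixed anchor-drug dose together with five library-drug doses (not always all listed) in √10 steps. After 5 days, a combined fix-and-stain solution (final 0.05% Triton X-100, 1% formaldehyde, 1 ug/ml Hoechst) was added. Nuclei counted on 4× images gave relative viability as treated counts over vehicle counts, reported as the median of duplicate plates.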

[2] = compound: CC1CC(=O)N(C2=CN=C(N=C2N1C3CCCC3)NC4=C(C=C(C=C4)C(=O)NC5CCN(CC5)C)OC)C [NPK76-II-72-1] + N=C(N)NC(=N)NCCc1ccccc1 [Phenformin] (partner 250 µM)
How it was run: as §1

BI-2536 + Bortezomib = compound: CC[C@@H]1C(=O)N(C)c2cnc(Nc3ccc(C(=O)NC4CCN(C)CC4)cc3OC)nc2N1C1CCCC1 [BI-2536] + CC(C)C[C@H](NC(=O)[C@H](Cc1ccccc1)NC(=O)c1cnccn1)B(O)O [Bortezomib] (partner 0.002 µM)
How it was run: as §1

BI-2536 + Lapatinib = compound: CC[C@@H]1C(=O)N(C)c2cnc(Nc3ccc(C(=O)NC4CCN(C)CC4)cc3OC)nc2N1C1CCCC1 [BI-2536] + CS(=O)(=O)CCNCc1ccc(-c2ccc3ncnc(Nc4ccc(OCc5cccc(F)c5)c(Cl)c4)c3c2)o1 [Lapatinib] (partner 2 µM)
How it was run: as §1

| Cell Line | relative viability ([1]; first compound 0.01 µM) | relative viability ([1]; first compound 0.03162 µM) | relative viability ([1]; first compound 0.1 µM) | relative viability ([1]; first compound 0.3162 µM) | relative viability ([1]; first compound 1 µM) | relative viability ([2]; first compound 0.01 µM) | relative viability ([2]; first compound 0.03162 µM) | relative viability ([2]; first compound 0.1 µM) | relative viability ([2]; first compound 0.3162 µM) | relative viability ([2]; first compound 1 µM) | relative viability (BI-2536 + Bortezomib; first compound 0.01 µM) | relative viability (BI-2536 + Bortezomib; first compound 0.03162 µM) | relative viability (BI-2536 + Bortezomib; first compound 0.1 µM) | relative viability (BI-2536 + Bortezomib; first compound 0.3162 µM) | relative viability (BI-2536 + Bortezomib; first compound 1 µM) | relative viability (BI-2536 + Lapatinib; first compound 0.01 µM) | relative viability (BI-2536 + Lapatinib; first compound 0.03162 µM) | relative viability (BI-2536 + Lapatinib; first compound 0.1 µM) | relative viability (BI-2536 + Lapatinib; first compound 0.3162 µM) | relative viability (BI-2536 + Lapatinib; first compound 1 µM) |
| --- | --- | --- | --- | --- | --- | --- | --- | --- | --- | --- | --- | --- | --- | --- | --- | --- | --- | --- | --- | --- |
| HCC-15 | 0.394 | 0.384 | 0.342 | 0.41 | 0.462 | 0.456 | 0.564 | 0.462 | 0.444 | 0.494 | 1.01 | 0.96 | 0.902 | 0.542 | 0.114 | 0.857 | 0.81 | 0.496 | 0.248 | 0.123 |
| HCC-44 | 0.875 | 1.16 | 0.962 | 0.795 | 1.04 | 0.201 | 0.176 | 0.22 | 0.212 | 0.271 | 0.905 | 0.885 | 0.297 | 0.14 | 0.0751 | 1.07 | 0.988 | 0.287 | 0.0973 | 0.0863 |
| HCC-78 | 0.446 | 0.407 | 0.408 | 0.368 | 0.429 | 0.695 | 0.684 | 0.684 | 0.692 | 0.665 | 0.505 | 0.559 | 0.487 | 0.352 | 0.219 | 0.403 | 0.885 | 0.814 | 0.39 | 0.18 |
| HCC-366 | 0.204 | 0.156 | 0.111 | 0.118 | 0.169 | 0.593 | 0.669 | 0.65 | 0.559 | 0.607 | 1.09 | 1.1 | 0.155 | 0.0158 | 0.0163 | 1.06 | 0.682 | 0.04 | 0.0163 | 0.0221 |
| HCC-827 | 0.399 | 0.416 | 0.417 | 0.409 | 0.476 | 0.407 | 0.448 | 0.407 | 0.409 | 0.404 | 1.07 | 0.971 | 0.974 | 0.638 | 0.377 | 0.209 | 0.117 | 0.176 | 0.178 | 0.157 |
| HOP-62 | 0.333 | 0.382 | 0.397 | 0.328 | 0.413 | 0.622 | 0.648 | 0.615 | 0.637 | 0.683 | 0.603 | 1.34 | 0.329 | 0.114 | 0.103 | 0.965 | 0.99 | 0.705 | 0.142 | 0.135 |
| LC-2-ad | 0.469 | 0.491 | 0.436 | 0.404 | 0.493 | 0.531 | 0.607 | 0.558 | 0.494 | 0.665 | 1.06 | 0.923 | 0.112 | 0.124 | 0.104 | 0.995 | 0.715 | 0.121 | 0.127 | 0.131 |
| LCLC-97TM1 | 0.177 | 0.31 | 0.215 | 0.188 | 0.228 | 0.401 | 0.464 | 0.388 | 0.398 | 0.416 | 0.658 | 0.408 | 0.0735 | 0.0639 | 0.0648 | 0.919 | 0.737 | 0.114 | 0.13 | 0.117 |
| LOU-NH91 | 0.688 | 0.674 | 0.628 | 0.576 | 0.741 | 0.621 | 0.709 | 0.706 | 0.563 | 0.884 | 0.506 | 0.496 | 0.458 | 0.287 | 0.334 | 0.794 | 0.756 | 0.663 | 0.284 | 0.291 |
| LU99A | 0.318 | 0.309 | 0.309 | 0.271 | 0.283 | 0.829 | 0.814 | 0.855 | 0.838 | 0.95 | 1.04 | 1.12 | 0.244 | 0.19 | 0.193 | 0.889 | 1.07 | 0.193 | 0.202 | 0.211 |
| LXF-289 | 0.172 | 0.214 | 0.181 | 0.165 | 0.2 | 0.531 | 0.587 | 0.503 | 0.516 | 0.497 | 0.991 | 0.91 | 0.485 | 0.0621 | 0.0527 | 0.889 | 0.839 | 0.443 | 0.0583 | 0.0798 |
| NCI-H23 | 0.367 | 0.386 | 0.35 | 0.379 | 0.378 | 0.752 | 0.788 | 0.684 | 0.718 | 0.85 | 1.14 | 0.885 | 0.182 | 0.117 | 0.139 | 1.07 | 0.773 | 0.168 | 0.171 | 0.147 |
| NCI-H322M | 0.486 | 0.509 | 0.496 | 0.44 | 0.534 | 0.706 | 0.935 | 0.778 | 0.817 | 0.829 | 1.32 | 1.22 | 1.34 | 1.34 | 0.311 | 0.545 | 0.483 | 0.59 | 0.673 | 0.251 |
| NCI-H460 | 0.524 | 0.529 | 0.673 | 0.463 | 0.597 | 0.501 | 0.512 | 0.582 | 0.522 | 0.522 | 1.21 | 0.65 | 0.265 | 0.0115 | 0.0118 | 1.04 | 0.257 | 0.206 | 0.0105 | 0.011 |
| NCI-H520 | 0.36 | 0.437 | 0.429 | 0.423 | 0.487 | 0.526 | 0.632 | 0.46 | 0.519 | 0.598 | 0.741 | 0.321 |  | 0.194 | 0.123 | 0.686 | 0.471 | 0.154 | 0.193 | 0.164 |
| NCI-H596 | 0.868 | 1.07 | 0.832 | 0.921 | 1.04 | 0.649 | 0.777 | 0.789 | 0.782 | 0.774 | 1.09 | 1.18 | 0.759 | 0.733 | 0.328 | 1.17 | 1.05 | 0.571 | 0.346 | 0.273 |

— the supplement of paper PMC10307832
